In ChEMBL document CHEMBL2029209, “Structure-based design of 2,6,7-trisubstituted-7H-pyrrolo[2,3-d]pyrimidines as Aurora kinases inhibitors” (Bioorg Med Chem Lett, 2012):
pIC50: −log10 of the molar value.

Columns and labels:
HCT-116 [1] = test: Induction of cell cycle arrest in human HCT116 cells assessed as minimum concentration required for G2/M versus G1 peak ratio over 2; assay type: functional
Aurora kinase B = Aurora kinase B (Homo sapiens, UniProt Q96GD4); test: Inhibition of aurora B kinase
Aurora kinase A = target: T1, Aurora kinase A (Homo sapiens, UniProt O14965); test: Inhibition of aurora A kinase
T1 sequence (O14965 whole entry): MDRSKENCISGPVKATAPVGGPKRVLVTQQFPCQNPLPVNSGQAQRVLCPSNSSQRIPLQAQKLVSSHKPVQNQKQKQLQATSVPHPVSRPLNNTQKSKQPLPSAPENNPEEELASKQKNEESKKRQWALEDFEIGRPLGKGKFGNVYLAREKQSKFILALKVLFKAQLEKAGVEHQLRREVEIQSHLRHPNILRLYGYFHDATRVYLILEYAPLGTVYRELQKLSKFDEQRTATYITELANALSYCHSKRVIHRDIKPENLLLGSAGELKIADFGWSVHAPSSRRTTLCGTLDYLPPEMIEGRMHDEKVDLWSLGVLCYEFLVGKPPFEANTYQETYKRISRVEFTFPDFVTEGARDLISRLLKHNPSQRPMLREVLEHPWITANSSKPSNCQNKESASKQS

HCT-116 [2] = test: Antiproliferative activity against human HCT116 cells; assay type: functional, cell-based
[3] = target: Cyclin-dependent kinase 1 (Homo sapiens, UniProt P06493); test: Inhibition of CDK1
Chain of Cyclin-dependent kinase 1 (P06493 whole entry): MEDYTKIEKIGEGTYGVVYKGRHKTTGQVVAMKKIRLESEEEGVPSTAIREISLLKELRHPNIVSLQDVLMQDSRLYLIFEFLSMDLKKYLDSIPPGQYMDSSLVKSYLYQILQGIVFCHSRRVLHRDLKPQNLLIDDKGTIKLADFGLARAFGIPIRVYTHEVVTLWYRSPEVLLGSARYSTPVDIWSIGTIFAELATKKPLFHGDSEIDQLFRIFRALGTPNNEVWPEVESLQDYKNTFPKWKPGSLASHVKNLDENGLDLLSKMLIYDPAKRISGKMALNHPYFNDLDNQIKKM

Chain of Aurora kinase B (Q96GD4 whole entry): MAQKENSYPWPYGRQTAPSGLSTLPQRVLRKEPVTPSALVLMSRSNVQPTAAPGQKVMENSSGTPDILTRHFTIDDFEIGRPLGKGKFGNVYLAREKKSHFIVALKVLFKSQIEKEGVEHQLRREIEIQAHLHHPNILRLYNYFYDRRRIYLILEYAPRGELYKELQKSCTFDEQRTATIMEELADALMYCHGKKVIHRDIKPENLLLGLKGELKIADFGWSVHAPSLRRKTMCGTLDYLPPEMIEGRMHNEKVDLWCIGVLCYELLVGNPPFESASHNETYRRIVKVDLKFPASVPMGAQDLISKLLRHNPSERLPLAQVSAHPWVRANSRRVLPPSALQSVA

Structure (SMILES) | pIC50 (Aurora kinase B) | pIC50 (Aurora kinase A) | pIC50 (HCT-116 [2]) | pIC50 [3] | Activity (HCT-116 [1]) [µM]
CN1CCN(C(=O)c2cc(Nc3ncc4cc(C(=O)O)n(C5CCCC5)c4n3)cn2C)CC1 | 6.00 | 6.46 | 4.91 | 5.00 | 10
CN1CCN(C(=O)c2cc(Nc3ncc4cc(CO)n(C5CCCC5)c4n3)cn2C)CC1 | 7.40 | 7.70 | 6.89 | 5.89 | 0.1
CN1CCN(C(=O)c2cc(Nc3ncc4cc(C(N)=O)n(C5CCCC5)c4n3)cn2C)CC1 | 7.96 |  | 7.15 | 6.30 | 0.1
CNCc1cc2cnc(Nc3cc(C(=O)N4CCN(C)CC4)n(C)c3)nc2n1C1CCCC1 | 7.22 | 7.40 | 6.68 | 6.15 | 0.3
CN1CCN(C(=O)c2cc(Nc3ncc4ccn(C5CCCC5)c4n3)cn2C)CC1 | 7.74 | 7.42 | 6.54 | 6.62 | 0.3
CN1CCN(C(=O)c2cc(Nc3ncc4cc(-c5cncn5C)n(C5CCCC5)c4n3)cn2C)CC1 | 8.30 | 8.70 | 8.30 | 6.70 | 0.003
CC(O)c1cc2cnc(Nc3cc(C(=O)N4CCN(C)CC4)n(C)c3)nc2n1C1CCCC1 (configuration not stated) | 7.52 | 7.96 | 7.10 | 5.96 | 0.1
CN1CCN(C(=O)c2cc(Nc3ncc4cc(-c5cnn(C)c5)n(C5CCCC5)c4n3)cn2C)CC1 | 8.40 | 8.70 |  | 6.74 | 0.03
CN1CCN(C(=O)c2cc(Nc3ncc4cc(/C=N/O)n(C5CCCC5)c4n3)cn2C)CC1 | 7.52 | 7.96 | 8.40 | 8.52 | 0.002
Cc1c(-c2cc3cnc(Nc4cc(C(=O)N5CCN(C)CC5)n(C)c4)nc3n2C2CCCC2)cnn1C | 8.40 | 8.70 | 6.96 | 6.48 | 0.03

Further compounds by rising pIC50 (Aurora kinase B), results first:

pIC50 (Aurora kinase B) | pIC50 (Aurora kinase A) | pIC50 (HCT-116 [2]) | pIC50 [3] | Structure (SMILES) | Activity (HCT-116 [1]) [µM]
8.40 | 8.70 | 6.96 | 5.85 | CC(C)CCn1cc(-c2cc3cnc(Nc4cc(C(=O)N5CCN(C)CC5)n(C)c4)nc3n2C2CCCC2)cn1 | 0.1
8.40 | 8.12 | 7.40 | 8.22 | CN1CCN(C(=O)c2cc(Nc3ncc4cc(C#N)n(C5CCCC5)c4n3)cn2C)CC1 | 0.065
8.40 | 8.70 | 7.22 | 7.55 | CN1CCN(C(=O)c2cc(Nc3ncc4cc(-c5cnco5)n(C5CCCC5)c4n3)cn2C)CC1 | 0.03
8.40 | 8.70 | 7.05 | 5.70 | CN1CCN(C(=O)c2cc(Nc3ncc4cc(-c5cnn(Cc6ccccc6)c5)n(C5CCCC5)c4n3)cn2C)CC1 | 0.1
8.40 |  | 6.23 | 5.77 | CN1CCN(C(=O)c2cc(Nc3ncc4cc(-c5ccnn5C)n(C5CCCC5)c4n3)cn2C)CC1 | 1
